From patent US7709645B2, “Pyrrolo-pyridine kinase modulators” (SGX Pharmaceuticals, Inc., priority 2004, dated 2010) come the findings set out here.

The term IC50 denotes the midpoint of a concentration-inhibition curve. High values mean lower potency, low ones higher potency.

The target of the experiment is T1, T315I mutant form of BCR-ABL in Ba/F3 cells (Homo sapiens, UniProt P00519, T315I).
T1 construct: expressed in transfected cells; host or cells: Ba/F3 cells; the other entry of the earlier key: BCR (P11274, Breakpoint cluster region protein)
T1 sequence (P00519 242-493 T315I limits assumed): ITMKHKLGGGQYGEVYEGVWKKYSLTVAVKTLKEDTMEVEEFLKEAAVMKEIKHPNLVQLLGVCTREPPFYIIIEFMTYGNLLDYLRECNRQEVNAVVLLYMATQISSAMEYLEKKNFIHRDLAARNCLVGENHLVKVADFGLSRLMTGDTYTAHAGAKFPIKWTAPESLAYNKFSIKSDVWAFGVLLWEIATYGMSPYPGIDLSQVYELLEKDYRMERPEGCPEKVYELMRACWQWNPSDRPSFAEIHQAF
As to the kind of experiment: Abl_T315I p-ELISA Cellular Assay (BCR-ABL phospho-ELISA). It is filed as cell-based. The following applies: 60-120 minutes incubation. How it is done: Cells (Ba/F3 cells transfected with WT BCR-ABL, other kinases, or T315I, Y253F, M351T, E255K, or other mutant forms of BCR-ABL) were grown in the absence of IL-3 at least ½ week before the assay. The day before assay, the cells were fed with fresh media so that at the time of assay the cells were in log phase. Ba/F3 cells that had been grown in the absence of IL-3 for at least ½ week were resuspended in RPMI 1640 so that each well of a 96-well plate would contain approximately 200,000 cells. Cells were distributed in a 96-well plate containing serially diluted concentrations of test compounds. Cells were typically incubated with or without test compounds for 60-120 minutes at 5% CO2, 37° C. The incubation was performed with or without other additives such as 10% FCS or 50% human plasma. After incubation of compounds, lysis buffer was added and incubated for 10-15 minutes; the lysate was cleared by centrifugation.
To make the ELISA plate, commercially available Anti-ABL antibodies (e.g. (Ab-3, Calbiochem OP20) were prepared at a concentration of 0.125 μg/ml in coating buffer (0.1M Na-carbonate, pH 9.5), and plated at 10 ml per plate (12.5 μl 100 μg/ml Ab/10 ml). In a high binding multi-well plate, 100 μl Ab in coating buffer were added to each well, and each plate was covered with a plate seal and incubated overnight at 4° C.
Excess antibody was removed and the ELISA plate was washed 3-4 times with 200 μl of wash buffer (0.05% Tween in PBS, pH 7.4). 150 μl of lysate (see above) were transferred to the ELISA plate. Plates were sealed and incubated 2 hours at room temperature. The detection antibody (e.g. HRP conjugated anti-pTyr or unconjugated α-p-Y 4G10, Upstate) was prepared in assay diluent. The antibody was diluted 1:1000 (stock=2 μg/μl, 200 μg in 100 μl; f.c.=2 μg/ml) in assay diluent and 10 ml of diluted antibody per plate were added. The lysate was removed from the ELISA plates, and wells were washed four times with 200 μl of wash buffer per well. 100 μl of detection antibody was added to each well; the plate was covered, and incubated 1 hr at room temperature (21° C.). Excess detection antibody was removed from the ELISA plates, and the wells were washed four times with 200 μl of wash buffer per well.
If necessary, (i.e. for unconjugated anti-pTyr antibody) secondary antibody (goat anti-rabbit HRP) was diluted 1:3000 in assay diluent (3.33 μl per 10 ml diluent) and added at 10 ml of diluted antibody per plate. Excess secondary antibody was removed from the ELISA plate, and the plate was washed four times with 200 μl per well of wash buffer.
Substrate Reagent A and Substrate Reagent B (Pierce Cat#37070 SuperSignal ELISA Pico Chemiluminescent Substrate) were added immediately before use (10 ml resultant solution per plate). 100 μl substrate were added per well, mixed for 1 minute, and chemiluminescent signal was measured with a luminometer.
On the technique in general: ELISA stands for enzyme-linked immunosorbent assay.
As to `CNC(=O)c1cncc(-c2cnc3[nH]cc(-c4ccccc4OC)c3c2)c1` [AE1], the IC50 was less than 100 nM. Turning to `CNC(=O)c1cc(-c2cnc3[nH]cc(-c4ccccc4OC)c3c2)cs1` [AE2], the IC50 lay within 100 to 1000 nM. For `COc1ccccc1-c1c[nH]c2ncc(-c3csc(C(=O)N(C)C)c3)cc12` [AE3], the IC50 was less than 100 nM. As for `COc1ccccc1-c1c[nH]c2ncc(-c3cc[nH]c(=O)c3)cc12` [AE9], the figure is 100 to 1000 nM. As for `COc1ccccc1-c1c[nH]c2ncc(-c3ccc(S(N)(=O)=O)s3)cc12` [AE11], the IC50 was 100 to 1000 nM. For the compound `COc1ccccc1-c1c[nH]c2ncc(-c3cccc(S(C)(=O)=O)c3)cc12` [AE13], the IC50 is 100 to 1000 nM.

In turn, `O=C(c1cncc(-c2cnc3[nH]cc(-c4ccc5cc[nH]c5c4)c3c2)c1)N1CCOCC1` [AE14] yielded a half-inhibitory concentration (IC50) of less than 100 nM. With `N#Cc1cc(-c2cnc3[nH]cc(-c4ccc5[nH]ccc5c4)c3c2)ccc1O` [AE20] the figure was less than 100 nM; with `c1cc2cc(-c3c[nH]c4ncc(-c5ccc6[nH]cnc6c5)cc34)ccc2[nH]1` [AE22], 100 to 1000 nM. `COc1ccccc1-c1c[nH]c2ncc(-c3ccc(O)c(CN4CCCN(C)CC4)c3)cc12` [AE41]: the IC50 is less than 100 nM. For `COc1ccccc1-c1c[nH]c2ncc(-c3cccc(C(=N)N4CCCCC4)c3)cc12` [AE42], the IC50 was less than 100 nM. Regarding `Oc1cccc(-c2cnc3[nH]cc(-c4ccc(O)c(F)c4)c3c2)c1` [AE48], the IC50 lay in the range of 100 to 1000 nM. Turning to `Oc1cccc(-c2cnc3[nH]cc(-c4ccn[nH]4)c3c2)c1` [AE49], the IC50 lay within 100 to 1000 nM. In the case of `Nc1nc(-c2c[nH]c3ncc(-c4ccc5[nH]ccc5c4)cc23)cs1` [AE55], the IC50 is less than 100 nM. With `COc1cc(-c2cnc3[nH]cc(-c4ccc(O)cc4)c3c2)ccc1O` [AE58] the figure was less than 100 nM. With `COc1cc(-c2cnc3[nH]cc(-c4ccccc4OC)c3c2)ccc1O` [AE64] the figure was less than 100 nM.
